Data: patent publication EP0970046B1, “N-HYDROXY-2-(ALKYL, ARYL, OR HETEROARYL SULFANYL, SULFINYL OR SULFONYL)-3-SUBSTITUTED ALKYL, ARYL OR HETEROARYLAMIDES AS MATRIX METALLOPROTEINASE INHIBITORS” (Wyeth Holdings Corporation, priority 1997, dated 1998)
Like-named read-outs stand apart in the source and are kept apart here.

Legend:
Assay type in all cases: biochemical
TACE = biological target: T1, TACE (Homo sapiens, UniProt P78536); experiment: Procedure for Measuring TACE Inhibition; settings: for inhibition at 1 µM: read-out: TACE % inhibition at 1 micromolar; for IC50: read-out: TACE IC 50
T1 construct: purchased Immunex
Procedure, shortened: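 Single-concentration screen: test compound at 1 µM final, 10-min room-temperature preincubation with 1 µg/mL protease in Tris pH 7.4 buffer containing glycerol. Initial rate from linear fluorescence increase (340/420 nm) over 10 min after adding 100 µM peptidyl substrate; significance versus control rate by Dunnett's test.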

MMP 1 = biological target: T2, MMP 1 (Homo sapiens, UniProt P03956); experiment: In Vitro Collagenase Assay; settings: for inhibition at 1 µM: read-out: MMP 1 % inhibition at 1 micromolar, 1 micromolar
T2 construct: human recombinant fibroblast collagenase (truncated, mw= 18,828, WAR, Radnor)
T2 sequence (P03956 100-269 limits assumed): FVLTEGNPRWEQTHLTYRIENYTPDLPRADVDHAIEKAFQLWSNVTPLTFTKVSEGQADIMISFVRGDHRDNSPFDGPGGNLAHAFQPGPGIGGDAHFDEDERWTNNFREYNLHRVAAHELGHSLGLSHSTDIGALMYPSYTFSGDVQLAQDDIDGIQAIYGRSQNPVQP
Description: The assay is based on the cleavage of a peptide substrate ((Dnp-Pro-Cha-Gly-Cys(Me)-His-Ala-Lys(NMa)-NH2), Peptide International, Inc.) by collagenase releasing the fluorescent NMa group which is quantitated on the fluorometer. Dnp quenches the NMa fluorescence in the intact substrate. […] Substrate is dissolved in methanol and stored frozen in 1 mM aliquots. […] For the assay, substrate is dissolved in HCBC buffer to a final concentration of 10 µM and collagenase to a final concentration of 5 nM. Compounds are dissolved in methanol, DMSO, or HCBC. The methanol and DMSO are diluted in HCBC to < 1.0%. Compounds are added to the 96 well plate containing enzyme and the reaction is started by the addition of substrate.
The slope of the line is calculated and represents the reaction rate.
The linearity of the reaction rate is confirmed (r^2 >0.85). The mean (x ± sem) of the control rate is calculated and compared for statistical significance (p <0.05) with drug-treated rates using Dunnett's multiple comparison test.

MMP 13 = MMP 13 (Homo sapiens, UniProt P45452); experiment: MMP 13 inhibition (IC50 / manual assay; method not described); settings: for inhibition at 1 µM: read-out: MMP 13 % inhibition at 1 micromolar
MMP 9 = biological target: T3, MMP 9 (Homo sapiens, UniProt P14780); experiment: In Vitro Gelatinase Assay; settings: human neutrophil gelatinase B; for inhibition at 1 µM: read-out: MMP 9 % inhibition at 1 micromolar, 1 micromolar; for IC50: read-out: MMP 9 IC 50
T3 construct: from tissue; host or cells: human neutrophils
Description: The assay is based on the cleavage of the thiopeptide substrate ((Ac-Pro-Leu-Gly(2 mercapto-4 methyl-pentanoyl)-Leu-Gly-OEt), Bachem Bioscience) by the enzyme, gelatinase, releasing the substrate product which reacts colorimetrically with DTNB ((5,5'-dithio-bis(2-nitro-benzoic acid)). The enzyme activity is measured by the rate of the color increase. The thiopeptide substrate is made up fresh as a 20 mM stock in 100% DMSO and the DTNB is dissolved in 100% DMSO as a 100 mM stock and stored in dark at room temperature. Both the substrate and DTNB are diluted together to 1 mM with substrate buffer (50 mM HEPES pH 7.5, 5 mM CaCl2) before use. […] The increase in OD405 is plotted and the slope of the line is calculated which represents the reaction rate. The linearity of the reaction rate is confirmed (r^2 >0.85). The mean (x ± sem) of the control rate is calculated and compared for statistical significance (p <0.05) with drug-treated rates using Dunnett's multiple comparison test.

[1] = human recombinant fibroblast collagenase
[2] = human recombinant fibroblast collagenase, read-out: MMP 1 IC 50

T3 sequence (P14780 94-707): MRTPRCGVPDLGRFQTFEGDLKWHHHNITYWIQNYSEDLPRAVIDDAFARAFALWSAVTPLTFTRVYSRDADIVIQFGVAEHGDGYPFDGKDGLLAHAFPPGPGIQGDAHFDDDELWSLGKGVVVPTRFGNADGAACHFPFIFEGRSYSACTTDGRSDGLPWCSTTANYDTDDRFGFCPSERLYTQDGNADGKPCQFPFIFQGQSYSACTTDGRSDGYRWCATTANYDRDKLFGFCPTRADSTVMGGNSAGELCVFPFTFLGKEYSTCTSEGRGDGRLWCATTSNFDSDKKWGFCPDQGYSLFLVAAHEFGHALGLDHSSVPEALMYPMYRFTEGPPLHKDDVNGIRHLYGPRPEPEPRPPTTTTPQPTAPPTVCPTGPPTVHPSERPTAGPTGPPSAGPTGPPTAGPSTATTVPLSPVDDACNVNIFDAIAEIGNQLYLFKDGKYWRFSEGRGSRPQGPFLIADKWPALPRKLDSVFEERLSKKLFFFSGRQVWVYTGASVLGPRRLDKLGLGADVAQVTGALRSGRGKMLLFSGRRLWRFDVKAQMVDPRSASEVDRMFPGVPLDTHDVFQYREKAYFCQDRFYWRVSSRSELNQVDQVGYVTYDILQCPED
T1 sequence (P78536 215-824): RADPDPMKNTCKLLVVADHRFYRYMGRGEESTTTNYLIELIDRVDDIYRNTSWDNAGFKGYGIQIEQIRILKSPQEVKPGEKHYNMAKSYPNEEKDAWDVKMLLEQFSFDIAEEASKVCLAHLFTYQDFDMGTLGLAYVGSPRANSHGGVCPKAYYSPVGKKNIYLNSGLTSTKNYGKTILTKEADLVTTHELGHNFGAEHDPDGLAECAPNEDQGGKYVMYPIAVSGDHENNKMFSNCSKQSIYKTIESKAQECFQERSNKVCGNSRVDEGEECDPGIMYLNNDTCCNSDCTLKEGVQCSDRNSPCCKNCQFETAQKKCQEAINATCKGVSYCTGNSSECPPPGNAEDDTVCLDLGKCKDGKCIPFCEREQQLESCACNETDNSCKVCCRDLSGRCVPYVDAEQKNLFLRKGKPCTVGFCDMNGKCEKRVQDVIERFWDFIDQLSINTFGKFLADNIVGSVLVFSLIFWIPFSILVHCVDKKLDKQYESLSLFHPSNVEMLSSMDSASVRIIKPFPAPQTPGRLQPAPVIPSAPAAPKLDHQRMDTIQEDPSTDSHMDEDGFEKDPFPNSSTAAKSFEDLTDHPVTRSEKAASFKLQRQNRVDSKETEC

| SMILES | inhibition at 1 µM (TACE) | IC50 (TACE) | IC50 (MMP 1; [2]) | IC50 (MMP 13; read-out: MMP 13 IC 50) | IC50 (MMP 9) | also measured |
| --- | --- | --- | --- | --- | --- | --- |
| COc1ccc(S(=O)(=O)C2(C(=O)NO)CCN(Cc3ccc(Cl)c(Cl)c3)CC2)cc1 [Example 85, 1-(3,4-dichlorobenzyl) -4-(4-methoxy-benzenesulfonyl)-piperidine-4-carboxylic acid hydroxamide] |  | 115 nM | 450 nM | 1.5 nM | 5.8 nM |  |
| CCCCCCC(Cc1ccc(OCCN2CCCCCC2)cc1)(C(=O)NO)S(=O)(=O)c1ccc(OC)cc1 (stereo not shown) [Example 36, 2-[4-(2-Azepan-1-yl-ethoxy)-benzyl]-2-(4-Methoxy-benzenesulfonyl)-octanoic acid hydroxyamide] |  | 826 nM | 622 nM | 20.7 nM | 83.8 nM |  |
| COc1ccc(S(=O)(=O)C2(C(=O)NO)CCN(Cc3ccc(OCCN4CCCCC4)cc3)CC2)cc1 [Example 109, 4-(4-Methoxy-benzenesulfonyl)-1-[4-(2-piperidin-1-yl-ethoxy)-benzyl]-piperidine-4-carboxylic acid hydroxyamide] |  | 386 nM |  | 2.5 nM | 2.7 nM | IC50 (MMP 1): 393 nM |
| CCCC(Cc1ccc(OCCN2CCCCCC2)cc1)(C(=O)NO)S(=O)(=O)c1ccc(OC)cc1 (stereo not shown) [Example 19, 2-[4-(2-Azepan-1-yl-ethoxy)-benzyl]-2-(4-methoxy-benzenesulfonyl)-pentanoic acid hydroxyamide] | 33.1% |  | 446 nM | 4.8 nM | 95.8 nM |  |
| COc1ccc(S(=O)(=O)C2(C(=O)NO)CCN(CCCOc3ccccc3)CC2)cc1 [Example 105, 4-(4-Methoxy-benzenesulfonyl)-1-(3-phenoxy-propyl)-piperidine-4-carboxylic acid hydroxyamide] | 50.2% |  | 1210 nM | 4.1 nM | 44.2 nM |  |
| CCCCCC#CCC(Cc1cccnc1)(C(=O)NO)S(=O)(=O)c1ccc(OC)cc1 (stereo not shown) [Example 74, 2-(4-Methoxy-benzenesulfonyl)-2-pyridin-3-ylmethyl-dec-4-ynoic acid hydroxyamide] | 47.9% |  | 138 nM | 4.3 nM | 9.2 nM |  |
| COc1ccc(S(=O)(=O)C(Cc2cccnc2)(CC(C)C)C(=O)NO)cc1 (stereo not shown) [Example 66, 2-(4-Methoxy-benzenesulfonyl)-4-methyl-2-pyridin-3-ylmethyl-pentanoic acid hydroxyamide] | 42.3% |  | 1600 nM | 226 nM | 131 nM |  |
| Cc1occc1S(=O)(=O)C(C)(Cc1ccc(OCCN2CCCCC2)cc1)C(=O)NO (stereo not shown) [Example 44, 2-Methyl-2-(2-methyl-furan-3-sulfonyl)-3-[4-(2-piperidin-1-yl-ethoxy)-phenyl]-propionic acid hydroxamide] | 14.9% |  |  |  |  | inhibition at 1 µM (MMP 1; [1]): 47.1%; inhibition at 1 µM (MMP 13): 39.5%; inhibition at 1 µM (MMP 9): 36.9% |
| COc1ccc(S(=O)(=O)C(CC=C(C)C)(Cc2cccnc2)C(=O)NO)cc1 (stereo not shown) [Example 63, 2-(4-Methoxy-benzenesulfonyl)-5-methyl-2-pyridin-3-ylmethyl-hex-4-enoic acid hydroxyamide] |  | 203 nM | 156 nM |  | 9 nM | IC50 (MMP 13): 3 nM |

More lines, main results first:

| inhibition at 1 µM (TACE) | IC50 (TACE) | IC50 (MMP 1; [2]) | IC50 (MMP 13; read-out: MMP 13 IC 50) | IC50 (MMP 9) | SMILES | also measured |
| --- | --- | --- | --- | --- | --- | --- |
| 51.1% |  |  |  |  | CC(Cc1ccccc1)(C(=O)NO)S(=O)(=O)c1cccs1 (stereo not shown) [Example 48, 2-Methyl-3-phenyl-2-(thiophene-2-sulfonyl)-propionic acid hydroxamide] | inhibition at 1 µM (MMP 1; [1]): 99.1%; MMP 13 % inhibition at 1 micromolar (MMP 13; 1 micromolar): 85.4%; inhibition at 1 µM (MMP 9): 79.1% |
|  | 228 nM | 3760 nM | 15.7 nM | 154 nM | CCCCC[C@@H](C(=O)NO)[S@@+]([O-])c1ccc(OC)cc1 (stereo in doubt) [Example 81b, 2S*-(4-methoxy-phenyl-R*- sulfinyl)-heptanoic acid hydroxyamide] |  |
| 48.1% |  | 178 nM | 13.1 nM | 10.4 nM | COc1ccc(S(=O)(=O)C(C)(Cc2ccc(Br)cc2)C(=O)NO)cc1 (stereo not shown) [Example 51, 3-(4-Bromo-phenyl)-N-hydroxy-2-(4-methoxy-benzenesulfonyl)-2-methyl-propionamide] |  |
|  | 222 nM | 494 nM | 1.5 nM | 16.8 nM | COc1ccc(S(=O)(=O)C2(C(=O)NO)CCN(Cc3ccc(C)cc3)CC2)cc1 [Example 86, 4-(4-methoxy-benzenesulfonyl)-1-(4-methylbenzyl)-piperidine-4-carboxylic acid hydroxamide] |  |
| 42.2% |  | 1000 nM | 13 nM | 63 nM | CCCCCC#CCC(CC#CCCCCC)(C(=O)NO)S(=O)(=O)c1ccc(OC)cc1 [Example 71, 2-(4-methoxy-benzenesulfonyl)-2-oct-2-ynyl-dec-4-ynoic acid hydroxyamide] |  |
| 55.1% |  | 110 nM | 21 nM | 66 nM | COc1ccc(S(=O)(=O)C2(C(=O)NO)CCCC2)cc1 [Example 54, 1-(4-Methoxy-benzenesulfonyl)-cyclopentanecarboxylic acid hydroxyamide] |  |
|  |  | 297 nM | 3.6 nM | 4.3 nM | CCN(CC)CCOc1cccc(CC(C)(C(=O)NO)S(=O)(=O)c2ccc(OC)cc2)c1 (stereo not shown) [Example 29, N-Hydroxy-2-(4-methoxy-benzenesulfonyl)-2-methyl-3-[3-(2-N,N-diethylamino-ethoxy)-phenyl]-propionamide] | TACE % inhibition at 1 micromolar (TACE; 1 micromolar): 41% |
|  | 250 nM | 656 nM | 2.4 nM | 16.2 nM | COc1ccc(S(=O)(=O)C2(C(=O)NO)CCN(Cc3ccc(F)cc3)CC2)cc1 [Example 99, 1-(4-Fluoro-benzyl)-4-(4-methoxy-benzenesulfonyl)-piperidine-4-carboxylic acid hydroxyamide] |  |
| 3.3% |  |  |  |  | Cn1ccnc1S(=O)(=O)C(C)(Cc1ccc(-c2ccccc2)cc1)C(=O)NO (stereo not shown) [Example 47, 3-Biphenyl-4-yl-2-methyl-2-(1-methyl-1H-imidazole-2-sulfonyl)-propionic acid hydroxyamide] | inhibition at 1 µM (MMP 1; [1]): 17.1%; inhibition at 1 µM (MMP 13): 7.12%; inhibition at 1 µM (MMP 9): 12.9% |
| 40.6% |  | 593 nM | 4 nM | 7.9 nM | COc1ccc(S(=O)(=O)C(C)(Cc2ccc(OCCCN3CCN(c4cccc(Cl)c4)CC3)cc2)C(=O)NO)cc1 (stereo not shown) [Example 23, 3-(4-{3-[4-(3-Chloro-phenyl)-piperazin-1-yl]-propoxy}-phenyl)-N-hydroxy-2-(4-methoxy-benzenesulfonyl)-2-methyl-propionamide] |  |
| 28.1% |  | 520 nM | 26.1 nM | 34.7 nM | CCC(Cc1ccc(OCCN2CCCCC2)cc1)(C(=O)NO)S(=O)(=O)c1ccc(OC)cc1 (stereo not shown) [Example 34, N-Hydroxy-2-(4-methoxy-benzenesulfonyl)-2-[4-(2-piperidin-1-yl-ethoxy)-benzyl]-butyramide] |  |
| 29.7% |  |  |  |  | COc1ccc(S(=O)(=O)C(CCN(C(C)C)C(C)C)(Cc2ccccc2)C(=O)NO)cc1 (stereo not shown) [Example 64, 2-Benzyl-4-diisopropylamino-N-hydroxy-2-(4-methoxy-benzenesulfonyl)-butyramide] | inhibition at 1 µM (MMP 1; [1]): 40.9%; inhibition at 1 µM (MMP 13): 36.7%; inhibition at 1 µM (MMP 9): 25.6% |
| 21.7% |  | 303 nM | 7 nM | 10 nM | COc1ccc(S(=O)(=O)C(C)(Cc2ccccc2Br)C(=O)NO)cc1 (stereo not shown) [Example 55, 3-(2-Bromo-phenyl)-N-hydroxy-2-(4-methoxy-benzenesulfonyl)-2-methyl-propionamide] |  |
